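Tested at 5 concentrations; 48 h exposure; 96-well plates; endpoints linearly interpolated, else capped at highest concentration. GI50 is the concentration that inhibits growth by half.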 Active and inactive are the calls of the source. Rule as the data show it: active = GI50 up to about 1.1 µM and inactive = higher.

Among the test systems are 786-0; A498; ACHN; CCRF-CEM; DU-145; HCT-15; HOP-62; Hs-578T; K562; KM12; MCF7; MDA-MB-231; NCI-H226; NCI-H23; PC-3; SK-MEL-2; SNB-19; TK-10; UACC-62; HCC 2998.
Experiment in all cases: NCI-60 cell line screen, 48 h

In the case of `CCOC(=O)C1(C(=O)OCC)C[C@H](C)[C@](C)(O)C1`, the GI50 in the experiment with 786-0 was > 100 µM (inactive); in the experiment on A498, > 100 µM (inactive); in the experiment with ACHN, > 100 µM (inactive); with CCRF-CEM, > 100 µM (inactive); with DU-145, > 100 µM (inactive); in the experiment with HCT-15, more than 100 µM. Also, the GI50 in the experiment on HOP-62, with Hs-578T, with K562, in the experiment with KM12, in the experiment with MCF7 and with MDA-MB-231 was > 100 µM (inactive) each time. The GI50 in the experiment on NCI-H226, with NCI-H23, with PC-3, with SK-MEL-2, in the experiment with SNB-19 and in the experiment with TK-10 was > 100 µM (inactive) each time. The GI50 in the experiment on UACC-62 is > 100 µM (inactive).

Consider `Oc1ccc(CCNCc2cc3c(cc2Br)OCO3)cc1`, for which the GI50 with 786-0 was 71 µM (inactive); in the experiment with A498 it was 50 µM (inactive); in the experiment on ACHN it was 95.5 µM (inactive); with CCRF-CEM, 73.8 µM (inactive); with DU-145, > 100 µM (inactive); in the experiment on HCT-15 it was more than 100 µM. The GI50 was 79.3 µM (inactive) with HOP-62; > 100 µM (inactive) in the experiment with Hs-578T; 34.8 µM (inactive) with K562; 70.1 µM (inactive) in the experiment with MCF7; 55.3 µM (inactive) in the experiment on MDA-MB-231; 32.5 µM (inactive) with NCI-H226. Also, the GI50 was > 100 µM (inactive) in the experiment with NCI-H23; 46.9 µM (inactive) with PC-3; 21.7 µM (inactive) in the experiment on SK-MEL-2; > 100 µM (inactive) in the experiment with SNB-19; 75.9 µM (inactive) in the experiment with TK-10; 52.7 µM (inactive) in the experiment with UACC-62.

With `O=C(O)CCC(C(=O)O)N1C(=O)C2C3CCC(C3)C2C1=O` (stereo not given), the GI50 in the experiment with 786-0 is > 100 µM (inactive); in the experiment on A498, > 100 µM (inactive); with ACHN, > 100 µM (inactive); with DU-145, > 100 µM (inactive); in the experiment on HCT-15 it was more than 100 µM; in the experiment with HOP-62 it was > 100 µM (inactive). The GI50 in the experiment on Hs-578T, in the experiment with K562, in the experiment on KM12, with MCF7, in the experiment with MDA-MB-231 and with NCI-H226 was > 100 µM (inactive) throughout. Besides, the GI50 in the experiment on NCI-H23, with PC-3, in the experiment with SK-MEL-2, in the experiment on SNB-19, in the experiment on TK-10 and in the experiment on UACC-62 was > 100 µM (inactive) in each case.

For `Cc1cc2c(c(S(=O)(=O)c3ccc(Cl)cc3[N+](=O)[O-])c1)NCCC2`, the GI50 in the experiment with 786-0 is > 100 µM (inactive); in the experiment with A498 it was > 100 µM (inactive); in the experiment on ACHN, 18.3 µM (inactive); in the experiment with DU-145, 94.4 µM (inactive); in the experiment on HCC 2998 it was > 100 µM (inactive); in the experiment with HCT-15 it was 70.8 µM. In addition, the GI50 is 50.9 µM (inactive) with HOP-62; > 100 µM (inactive) with Hs-578T; 35.1 µM (inactive) in the experiment on KM12; 59.6 µM (inactive) with MCF7; > 100 µM (inactive) in the experiment on MDA-MB-231; > 100 µM (inactive) in the experiment on NCI-H226. The GI50 is 45 µM (inactive) in the experiment on NCI-H23; 9.64 µM (inactive) in the experiment with PC-3; > 100 µM (inactive) in the experiment with SK-MEL-2; > 100 µM (inactive) in the experiment on SNB-19; > 100 µM (inactive) in the experiment on TK-10; 8.11 µM (inactive) with UACC-62.

For the compound `CC(=O)OCC1OC(n2c(N)c(C#N)c(-c3cccc(Cl)c3)c(C#N)c2=S)C(OC(C)=O)C(OC(C)=O)C1OC(C)=O` (stereo not given), the GI50 was 22.2 µM (inactive) in the experiment on 786-0; 20.6 µM (inactive) in the experiment with A498; 29.1 µM (inactive) with ACHN; 3.31 µM (inactive) in the experiment with CCRF-CEM; 18.2 µM (inactive) in the experiment with DU-145; 10.8 µM (inactive) in the experiment with HCC 2998. The GI50 in the experiment on HCT-15 was 22.5 µM; in the experiment with HOP-62, 23.3 µM (inactive); in the experiment with Hs-578T, 20 µM (inactive); with K562 it was 28.2 µM (inactive); in the experiment on KM12, 15.5 µM (inactive); with MCF7 it was 21.5 µM (inactive). Moreover, the GI50 in the experiment with MDA-MB-231 is 18.9 µM (inactive); in the experiment on NCI-H23, 24.2 µM (inactive); in the experiment on PC-3, 24.9 µM (inactive); in the experiment on SK-MEL-2, 19 µM (inactive); in the experiment with SNB-19 it was 31.5 µM (inactive); with TK-10 it was 19.9 µM (inactive). For the same compound, the GI50 in the experiment with UACC-62 is 26.9 µM (inactive).

Regarding `C[N+]1(C)C2CC(OC(=O)C(CO)c3ccccc3)CC1C1OC12` (stereo not given), the GI50 in the experiment with 786-0 was > 100 µM (inactive); in the experiment with A498 it was > 100 µM (inactive); in the experiment with ACHN, > 100 µM (inactive); with CCRF-CEM, > 100 µM (inactive); in the experiment with DU-145, > 100 µM (inactive); with HCT-15, more than 100 µM. The GI50 with HOP-62, in the experiment on Hs-578T, with K562, with KM12, in the experiment on MCF7 and with MDA-MB-231 was > 100 µM (inactive) each time. The GI50 with NCI-H226, in the experiment on NCI-H23, with PC-3, in the experiment with SK-MEL-2, in the experiment on SNB-19 and in the experiment on TK-10 was > 100 µM (inactive) in each case. Further, the GI50 in the experiment with UACC-62 was > 100 µM (inactive).

Turning to `O=C1C(=C2SC(c3ccccc3)(c3ccccc3)c3ccccc32)C(=O)c2ccccc21`, the GI50 in the experiment with 786-0, in the experiment with A498, in the experiment on ACHN, in the experiment on CCRF-CEM, in the experiment with DU-145 and in the experiment on HCC 2998 was > 100 µM (inactive) in each case. The GI50 was more than 100 µM in the experiment with HCT-15; > 100 µM (inactive) in the experiment with HOP-62; > 100 µM (inactive) in the experiment with Hs-578T; > 100 µM (inactive) with K562; > 100 µM (inactive) with KM12; > 100 µM (inactive) in the experiment on MCF7. In addition, the GI50 is > 100 µM (inactive) in the experiment on MDA-MB-231; > 100 µM (inactive) in the experiment on NCI-H226; > 100 µM (inactive) with NCI-H23; 82.4 µM (inactive) in the experiment with PC-3; > 100 µM (inactive) in the experiment on SNB-19; > 100 µM (inactive) in the experiment on TK-10. Moreover, the GI50 with UACC-62 was > 100 µM (inactive).

For the compound `C1=N\CCNCC/N=C\c2ccc(cc2)OCc2cccc(n2)COc2ccc/1cc2`, the GI50 is 40.2 µM (inactive) with 786-0; > 100 µM (inactive) with A498; 29.7 µM (inactive) with ACHN; > 100 µM (inactive) with CCRF-CEM; > 100 µM (inactive) in the experiment with DU-145; 97.1 µM in the experiment with HCT-15. Besides, the GI50 was 21.4 µM (inactive) in the experiment with HOP-62; 23.5 µM (inactive) with Hs-578T; > 100 µM (inactive) in the experiment with K562; > 100 µM (inactive) with KM12; > 100 µM (inactive) with MCF7; 30.7 µM (inactive) in the experiment on MDA-MB-231. Besides, the GI50 was > 100 µM (inactive) with NCI-H226; 66.7 µM (inactive) in the experiment with NCI-H23; 78.2 µM (inactive) in the experiment on PC-3; 70.3 µM (inactive) in the experiment with SK-MEL-2; 49 µM (inactive) in the experiment with SNB-19; > 100 µM (inactive) in the experiment on UACC-62.

For `CN(C)c1ccc(C(=C2C=CC(=[N+](C)C)C=C2)c2c(O)c(S(=O)(=O)[O-])cc3cc(S(=O)(=O)O)ccc23)cc1`, the GI50 was > 100 µM (inactive) in the experiment with 786-0; > 100 µM (inactive) with A498; > 100 µM (inactive) in the experiment on ACHN; > 100 µM (inactive) with DU-145; > 100 µM (inactive) in the experiment on HCC 2998; more than 100 µM in the experiment with HCT-15. Moreover, the GI50 in the experiment with HOP-62, with Hs-578T, with K562, in the experiment with KM12, in the experiment with MCF7 and in the experiment on MDA-MB-231 was > 100 µM (inactive) throughout. Besides, the GI50 with NCI-H226, with NCI-H23, in the experiment with PC-3, with SK-MEL-2, in the experiment with SNB-19 and with TK-10 was > 100 µM (inactive) each time. For the same compound, the GI50 with UACC-62 was > 100 µM (inactive).

In the case of `COc1cc2c(c(OC)c1)C(C)=NC(C)C2` (stereo not given), the GI50 in the experiment with 786-0, in the experiment on A498, with ACHN, with CCRF-CEM, with DU-145 and in the experiment on HCC 2998 was > 100 µM (inactive) throughout. For the same compound, the GI50 is more than 100 µM in the experiment with HCT-15; > 100 µM (inactive) in the experiment on HOP-62; > 100 µM (inactive) with Hs-578T; > 100 µM (inactive) in the experiment on K562; > 100 µM (inactive) with KM12; > 100 µM (inactive) in the experiment with MCF7. For the same compound, the GI50 with MDA-MB-231, with NCI-H226, with NCI-H23, in the experiment on PC-3, in the experiment on SNB-19 and with TK-10 was > 100 µM (inactive) each time. In addition, in the experiment on UACC-62, the GI50 is > 100 µM (inactive).

Take `Nc1ccccc1/N=C/c1cc2cc([N+](=O)[O-])ccc2s1`: the GI50 in the experiment with 786-0 was 14.5 µM (inactive); in the experiment on A498, 10.4 µM (inactive); in the experiment on ACHN, 11.6 µM (inactive); in the experiment with CCRF-CEM, 5.01 µM (inactive); in the experiment with DU-145, 12.6 µM (inactive); with HCC 2998 it was 19.3 µM (inactive). For the same compound, the GI50 is 43.3 µM in the experiment with HCT-15; 16.8 µM (inactive) in the experiment with HOP-62; 15.1 µM (inactive) in the experiment on Hs-578T; 12.7 µM (inactive) with K562; 10 µM (inactive) in the experiment on KM12; 5.27 µM (inactive) with MCF7. The GI50 was 16.3 µM (inactive) with MDA-MB-231; 33 µM (inactive) in the experiment on NCI-H23; 14.2 µM (inactive) with PC-3; 12.7 µM (inactive) in the experiment on SK-MEL-2; 14.1 µM (inactive) in the experiment with SNB-19; 15.2 µM (inactive) with TK-10. The GI50 in the experiment with UACC-62 was 12.6 µM (inactive).

These data come from ChEMBL document CHEMBL1201862, “PubChem BioAssay data set” (2004).
